These results are taken from patent US12404295B2, “(Hetero)aryl-methyl-thio-beta-D-galactopyranoside derivatives” (Idorsia Pharmaceuticals Ltd, priority 2019, dated 2025).

One assay addresses human Gal-3 (hGal-3) (Homo sapiens (Human), UniProt P17931). The experiment in a line: competitive binding assay: biotinylated hGal-3 binding to microplate-adsorbed asialofetuin (ASF). In outline:
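Peroxidase activity developed with ABTS measures the biotinylated hGal-3 remaining on the asialofetuin-coated surface after competition with test compounds. Incubation ran 3 h at 4 °C, followed by 1 h with streptavidin-peroxidase at 80 ng/mL.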

For the next assay, the target named is human Gal-1 (hGal-1) (Homo sapiens (Human), UniProt P09382). The experiment in a line: competitive binding assay: biotinylated hGal-1 binding to microplate-adsorbed asialofetuin (ASF). The note with it: Table 15; read-out: IC50 (Galectin-1 inhibition). In outline: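 Biotinylated human Gal-1 (300-1000 ng/mL) competes with serially diluted compound for binding to ASF-coated plates, 3 h at 4° C. Bound protein detected with streptavidin-peroxidase and ABTS substrate (spectrophotometric). IC50 given as mean of several measurements.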

Where [1] appears, read: Table 10, 2-OMe-Gal inhibitors, read-out: IC50 (Gal-3 inhibition).
Setting [2] is: Gal-3 inhibition, binding of biotinylated hGal-3 to ASF, mean values, read-out: IC50.
Where [3] appears, read: Table 5, read-out: IC50 (Gal-3 inhibition).

As usually defined, the IC50 is the concentration that gives 50% inhibition.

Read-outs that look alike come from different tables or passages of the source.

Chain of human Gal-1 (hGal-1) (P09382 whole entry): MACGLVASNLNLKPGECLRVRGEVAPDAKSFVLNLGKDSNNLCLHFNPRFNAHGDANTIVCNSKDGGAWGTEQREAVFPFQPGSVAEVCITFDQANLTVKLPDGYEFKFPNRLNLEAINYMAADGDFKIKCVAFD
Chain of human Gal-3 (hGal-3) (P17931 whole entry): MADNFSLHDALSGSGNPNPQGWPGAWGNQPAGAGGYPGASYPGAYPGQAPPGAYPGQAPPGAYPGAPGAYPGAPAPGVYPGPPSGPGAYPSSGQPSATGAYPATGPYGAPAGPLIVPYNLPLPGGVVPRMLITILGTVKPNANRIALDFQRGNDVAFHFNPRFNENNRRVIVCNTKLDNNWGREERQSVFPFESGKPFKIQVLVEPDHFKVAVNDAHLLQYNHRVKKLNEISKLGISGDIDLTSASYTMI

`CO[C@@H]1[C@@H](n2cc(-c3cc(F)c(F)c(F)c3)nn2)[C@@H](O)[C@@H](CO)O[C@H]1S[C@@H](c1ccccc1C(C)C)C1(O)CCC(F)(F)CC1` [Example 2.44.105S.I., (2R,3R,4S,5R,6S)-6-(((S)-(4,4-Difluoro-1-hydroxycyclohexyl)(2-isopropylphenyl)methyl)thio)-2-(hydroxymethyl)-5-methoxy-4-(4-(3,4,5-trifluorophenyl)-1H-1,2,3-triazol-1-yl)tetrahydro-2H-pyran-3-ol]: the results for the concentration for half-maximal inhibition (IC50) at human Gal-3 (hGal-3) (setting [1]) and on human Gal-1 (hGal-1) were 70.5 µM and 53.3 µM, respectively.

For `Cc1c(F)cccc1[C@H](S[C@@H]1O[C@H](CO)[C@H](O)[C@H](n2cc(-c3cc(F)c(F)c(F)c3)nn2)[C@H]1O)C(C)(C)O` [Example 2.31.114S., (2S,3R,4S,5R,6R)-2-(((S)-1-(3-Fluoro-2-methylphenyl)-2-hydroxy-2-methylpropyl)thio)-6-(hydroxymethyl)-4-(4-(3,4,5-trifluorophenyl)-1H-1,2,3-triazol-1-yl)tetrahydro-2H-pyran-3,5-diol], the figures for the IC50 at human Gal-3 (hGal-3) (setting [2]) and at human Gal-1 (hGal-1) were 5.4 µM and 40.9 µM, respectively.

On to `CO[C@@H]1[C@@H](n2cc(-c3cc(F)c(F)c(F)c3)nn2)[C@@H](O)[C@@H](CO)O[C@H]1S[C@@H](c1nccc(C(F)(F)F)c1C)C1(O)CCC(F)(F)CC1` [Example 2.44.147S.I., (2R,3R,4S,5R,6S)-6-(((S)-(4,4-Difluoro-1-hydroxycyclohexyl)(3-methyl-4-(trifluoromethyl)pyridin-2-yl)methyl)thio)-2-(hydroxymethyl)-5-methoxy-4-(4-(3,4,5-trifluorophenyl)-1H-1,2,3-triazol-1-yl)tetrahydro-2H-pyran-3-ol], for which the IC50 on human Gal-3 (hGal-3) (Table 11, read-out: IC50 (Gal-3 inhibition)) was 5.3 µM; on human Gal-1 (hGal-1), 31.8 µM.

As to `CC(C)c1ccccc1[C@@H](S[C@@H]1O[C@H](CO)[C@H](O)[C@H](n2cc(-c3cc(F)c(F)c(F)c3)nn2)[C@H]1O)C(C)(C)O` [Example 2.31.105R., (2S,3R,4S,5R,6R)-2-(((R)-2-Hydroxy-1-(2-isopropylphenyl)-2-methylpropyl)thio)-6-(hydroxymethyl)-4-(4-(3,4,5-trifluorophenyl)-1H-1,2,3-triazol-1-yl)tetrahydro-2H-pyran-3,5-diol], the IC50 at human Gal-3 (hGal-3) (setting [2]) came out at 0.06 µM; at human Gal-1 (hGal-1) it was 0.16 µM.

Regarding “(2S,3R,4S,5R,6R)-2-(((R)-(3,3-Difluoro-1-hydroxycyclobutyl)(3-(trifluoromethyl)pyridin-2-yl)methyl)thio)-6-(hydroxymethyl)-4-(4-(3,4,5-trifluorophenyl)-1H-1,2,3-triazol-1-yl)tetrahydro-2H-pyran-3,5-diol [Example 2.35.125R.]”, the IC50 on human Gal-3 (hGal-3) (setting [3]) was found to be 0.1 µM; on human Gal-1 (hGal-1) it was 0.81 µM.

As for `CC(C)(O)C(S[C@@H]1O[C@H](CO)[C@H](O)[C@H](n2cc(-c3cc(F)c(F)c(F)c3)nn2)[C@H]1O)c1ccccc1` (stereo partly drawn) [Example 2.31.100., (2S,3R,4S,5R,6R)-2-((2-Hydroxy-2-methyl-1-phenylpropyl)thio)-6-(hydroxymethyl)-4-(4-(3,4,5-trifluorophenyl)-1H-1,2,3-triazol-1-yl)tetrahydro-2H-pyran-3,5-diol], the IC50 on human Gal-3 (hGal-3) (setting [2]) is 1.9 µM; on human Gal-1 (hGal-1), 3.71 µM.

On to “(2S,3R,4S,5R,6R)-2-(((2,3-Dichlorophenyl)(4,4-difluoro-1-hydroxycyclohexyl)methyl)thio)-6-(hydroxymethyl)-4-(4-(3,4,5-trifluorophenyl)-1H-1,2,3-triazol-1-yl)tetrahydro-2H-pyran-3,5-diol [Example 2.44.113.]”, for which the IC50 on human Gal-3 (hGal-3) (setting [3]) stood at 0.36 µM; at human Gal-1 (hGal-1) it was 2.35 µM.

As for “(2S,3R,4S,5R,6R)-2-(((S)-(3,3-Difluoro-1-hydroxycyclobutyl)(3-(trifluoromethyl)pyridin-2-yl)methyl)thio)-6-(hydroxymethyl)-4-(4-(3,4,5-trifluorophenyl)-1H-1,2,3-triazol-1-yl)tetrahydro-2H-pyran-3,5-diol [Example 2.35.125S.]”, the values for the IC50 at human Gal-3 (hGal-3) (setting [3]) and at human Gal-1 (hGal-1) were 3 µM and 21.8 µM, respectively.

Turning to `OC[C@H]1O[C@@H](S[C@H](c2ncccc2C(F)(F)F)C2(O)CCC(F)(F)CC2)[C@H](O)[C@@H](n2cc(-c3cc(F)c(F)c(F)c3)nn2)[C@H]1O` [Example 2.44.125R., (2S,3R,4S,5R,6R)-2-(((R)-(4,4-Difluoro-1-hydroxycyclohexyl)(3-(trifluoromethyl)pyridin-2-yl)methyl)thio)-6-(hydroxymethyl)-4-(4-(3,4,5-trifluorophenyl)-1H-1,2,3-triazol-1-yl)tetrahydro-2H-pyran-3,5-diol], the values for the IC50 at human Gal-3 (hGal-3) (setting [3]) and at human Gal-1 (hGal-1) were 0.05 µM and 0.2 µM, respectively.

For the compound `Cc1ccccc1[C@@H](S[C@@H]1O[C@H](CO)[C@H](O)[C@H](n2cc(-c3cc(F)c(F)c(F)c3)nn2)[C@H]1O)C1(O)CC(C)C1` (stereo partly drawn) [Example 2.36.102R., (2S,3R,4S,5R,6R)-2-(((1R)-(1-Hydroxy-3-methylcyclobutyl)(o-tolyl)methyl)thio)-6-(hydroxymethyl)-4-(4-(3,4,5-trifluorophenyl)-1H-1,2,3-triazol-1-yl)tetrahydro-2H-pyran-3,5-diol], the half-maximal inhibitory concentration (IC50) on human Gal-3 (hGal-3) (setting [3]) stood at 0.44 µM; on human Gal-1 (hGal-1), 3.5 µM.

`CC(C)(O)[C@H](S[C@@H]1O[C@H](CO)[C@H](O)[C@H](n2cc(-c3cc(F)c(F)c(F)c3)nn2)[C@H]1O)c1cccnc1C(F)(F)F` [Example 2.31.118R., (2S,3R,4S,5R,6R)-2-(((R)-2-hydroxy-2-methyl-1-(2-(trifluoromethyl)pyridin-3-yl)propyl)thio)-6-(hydroxymethyl)-4-(4-(3,4,5-trifluorophenyl)-1H-1,2,3-triazol-1-yl)tetrahydro-2H-pyran-3,5-diol]: the IC50 on human Gal-3 (hGal-3) (setting [2]) was 0.21 µM; at human Gal-1 (hGal-1), 0.64 µM.

As to `CCn1ncc(Cl)c1[C@H](S[C@@H]1O[C@H](CO)[C@H](O)[C@H](n2cc(-c3cc(F)c(F)c(F)c3)nn2)[C@H]1OC)C1(O)CCC(F)(F)CC1` [Example 2.44.139S.I., (2R,3R,4S,5R,6S)-6-(((S)-(4-Chloro-1-ethyl-1H-pyrazol-5-yl)(4,4-difluoro-1-hydroxycyclohexyl)methyl)thio)-2-(hydroxymethyl)-5-methoxy-4-(4-(3,4,5-trifluorophenyl)-1H-1,2,3-triazol-1-yl)tetrahydro-2H-pyran-3-ol], the half-inhibitory concentration (IC50) on human Gal-3 (hGal-3) (setting [1]) was 37.9 µM; on human Gal-1 (hGal-1) it was more than 100 µM.

Consider `CCCc1ccccc1C(S[C@@H]1O[C@H](CO)[C@H](O)[C@H](n2cc(-c3cc(F)c(F)c(F)c3)nn2)[C@H]1O)C(C)(C)O` (stereo partly drawn) [Example 2.31.104., (2S,3R,4S,5R,6R)-2-((2-Hydroxy-2-methyl-1-(2-propylphenyl)propyl)thio)-6-(hydroxymethyl)-4-(4-(3,4,5-trifluorophenyl)-1H-1,2,3-triazol-1-yl)tetrahydro-2H-pyran-3,5-diol], for which the IC50 on human Gal-3 (hGal-3) (setting [2]) turned out to be 0.17 µM; at human Gal-1 (hGal-1) it was 0.6 µM.

Consider `Cc1noc(C2CC2)c1C(S[C@@H]1O[C@H](CO)[C@H](O)[C@H](n2cc(-c3cc(F)c(F)c(F)c3)nn2)[C@H]1O)C1(O)CCCCC1` (stereo partly drawn) [Example 2.39.128., (2S,3R,4S,5R,6R)-2-(((5-Cyclopropyl-3-methylisoxazol-4-yl)(1-hydroxycyclohexyl)methyl)thio)-6-(hydroxymethyl)-4-(4-(3,4,5-trifluorophenyl)-1H-1,2,3-triazol-1-yl)tetrahydro-2H-pyran-3,5-diol], for which the half-maximal inhibitory concentration (IC50) amounted to 0.21 µM at human Gal-3 (hGal-3) (setting [3]) and 1.11 µM at human Gal-1 (hGal-1).

Regarding `CC(C)Cc1ccccc1[C@@H](S[C@@H]1O[C@H](CO)[C@H](O)[C@H](n2cc(-c3cc(F)c(F)c(F)c3)nn2)[C@H]1O)C(C)(C)O` [Example 2.31.107R., (2S,3R,4S,5R,6R)-2-(((R)-2-hydroxy-1-(2-isobutylphenyl)-2-methylpropyl)thio)-6-(hydroxymethyl)-4-(4-(3,4,5-trifluorophenyl)-1H-1,2,3-triazol-1-yl)tetrahydro-2H-pyran-3,5-diol], the values for the IC50 on human Gal-3 (hGal-3) (setting [2]) and on human Gal-1 (hGal-1) were 0.2 µM and 0.3 µM, respectively.

Turning to `CN1CCC(O)(C(S[C@@H]2O[C@H](CO)[C@H](O)[C@H](n3cc(-c4cc(F)c(F)c(F)c4)nn3)[C@H]2O)c2ncccc2C(F)(F)F)CC1` (stereo partly drawn) [Example 2.40.125., (2S,3R,4S,5R,6R)-2-(((4-Hydroxy-1-methylpiperidin-4-yl)(3-(trifluoromethyl)pyridin-2-yl)methyl)thio)-6-(hydroxymethyl)-4-(4-(3,4,5-trifluorophenyl)-1H-1,2,3-triazol-1-yl)tetrahydro-2H-pyran-3,5-diol], the IC50 on human Gal-3 (hGal-3) (setting [3]) is 0.2 µM; on human Gal-1 (hGal-1), 0.53 µM.

On to “(2S,3R,4S,5R,6R)-2-(((R)-(4-Hydroxy-2,2,6,6-tetramethyltetrahydro-2H-pyran-4-yl)(2-(trifluoromethyl)phenyl)methyl)thio)-6-(hydroxymethyl)-4-(4-(3,4,5-trifluorophenyl)-1H-1,2,3-triazol-1-yl)tetrahydro-2H-pyran-3,5-diol [Example 2.42.102R.]”, for which the figures for the half-maximal inhibitory concentration (IC50) on human Gal-3 (hGal-3) (setting [3]) and on human Gal-1 (hGal-1) were 0.09 µM and 6.4 µM, respectively.

Regarding `Cc1conc1[C@H](S[C@@H]1O[C@H](CO)[C@H](O)[C@H](n2cc(-c3cc(F)c(F)c(F)c3)nn2)[C@H]1O)C1(O)CCC(F)(F)CC1` [Example 2.44.120S., (2S,3R,4S,5R,6R)-2-(((S)-(4,4-Difluoro-1-hydroxycyclohexyl)(4-methylisoxazol-3-yl)methyl)thio)-6-(hydroxymethyl)-4-(4-(3,4,5-trifluorophenyl)-1H-1,2,3-triazol-1-yl)tetrahydro-2H-pyran-3,5-diol], the IC50 on human Gal-3 (hGal-3) (setting [3]) came out at 8.27 µM; on human Gal-1 (hGal-1), 22.6 µM.
